Experimental data: patent publication US6696437B1, “Heterocyclically substituted benzimidazoles, the production and application thereof” (Abbott GmbH & Co. KG, priority 1999, dated 2004)

Experiments:
[1] = molecular target: PARP II (Homo sapiens, UniProt Q9UGN5); assay: Inhibition of the enzyme PARP II; assay type: biochemical; settings: PARP versus PARP II
[2] = Determination of the solubility in water; assay type: physicochemical; settings: pH 5-6 adjusted with sodium acetate solution
Protocol: Determination of the Solubility in Water
A compound to be measured is dissolved directly in a fixed volume of water, and the resulting solution is adjusted to pH 5-6 with a sodium acetate solution so that the active ingredient concentration to be tested is reached. If the measured substance is not in the form of a water-soluble salt, it was dissolved in the minimum amount of dimethyl sulfoxide and then diluted with water (final dimethyl sulfoxide concentration≦1%), after which the pH was again adjusted.

[3] = S. Cuzzocrea et al., Br. J. Pharmacol. 1997; cited from earlier work
[4] = test system: poly(ADP-ribose) polymerase or PARP (EC 2.4.2.30); assay: Inhibition of the enzyme poly(ADP-ribose) polymerase (ELISA / HTRF assay); assay type: biochemical, human or bovine
Protocol: The inhibitory effect of the substituted benzimidazoles I and II can be determined using an enzyme assay disclosed in the literature, with a Ki being determined as gauge of the effect. The benzimidazoles I and II were measured in this way for an inhibitory effect on the enzyme poly(ADP-ribose) polymerase or PARP (EC 2.4.2.30).
Inhibition of the Enzyme poly(ADP-ribose) Polymerase or PARP (EC 2.4.2.30)
A 96-well microtiter plate (FALCON Micro-Test IIIä Flexible Assay Plate, #3912) was coated with histones (SIGMA, H-7755). Histones were for this purpose dissolved in carbonate buffer (0.05 M […]; pH 9.4) in a concentration of 50 μg/ml. The individual wells of the microtiter plate were each incubated with 150 μl of this histone solution at room temperature for at least 2 hours or at 4° C. overnight. The wells are then blocked by adding 150 μl of a 1% strength BSA solution (SIGMA, A-7888) in carbonate buffer at room temperature for 2 hours. This is followed by three washing steps with washing buffer (0.05% […] in 1×PBS; PBS (phosphate buffered saline; Gibco, Order No. 10010): 0.21 g/l KH2PO4, 9 g/l NaCl, 0.726 g/l Na2HPO4.7H2O, pH 7.4). Washing steps were all carried out in a microtiter plate washer (“Columbus” microtiter plate washer, SLT-Labinstruments, Austria).
Required for the enzyme reaction were an enzyme reaction solution and a substrate solution, in each case as a premix. The absolute amount of these solutions depended on the intended number of assay wells.
Composition of the enzyme reaction solution per well:
4 μl of PARP reaction buffer (1 M tris-HCl pH 8.0, 100 mM MgCl2, 10 mM DTT)
20 ng of PARP (human or bovine)
4 μl of activated DNA (1 mg/ml; SIGMA, D-4522)
Composition of the substrate solution per well:
5 μl of PARP reaction buffer (10×)
0.8 μl of NAD solution (10 mM, SIGMA N-1511)
Inhibitors were dissolved in 1× PARP reaction buffer. DMSO, which was occasionally used to dissolve inhibitors in higher concentrations, was no problem up to a final concentration of 2%. For the enzyme reaction, 40μl of the enzyme reaction solution were introduced into each well and incubated with 10 μl of inhibitor solution for 10 minutes. The enzyme reaction was then started by adding 50 μl of substrate solution per well. The reaction was carried out at room temperature for 30 minutes and then stopped by washing three times with washing buffer.
The primary antibodies employed were specific anti-poly(ADP-ribose) antibodies in a dilution of 1:5000. Dilution took place in antibody buffer (1% BSA in PBS; 0.05% Tween20). Incubation time for the primary antibody was one hour at room temperature. […] This was followed by immediate measurement in an ELISA plate reader (EAR340AT “Easy Reader”, SLT-Labinstruments, Austria) (450 nm versus 620 nm).
Various concentrations were used to construct a dose-effect plot to determine the Ki of an inhibitor. […] Arithmetic means are determined using Microsoft© Excel. The IC50 is determined using the Microcal© Origin Software (Vers. 5.0) (“Sigmoidal Fit”). Conversion of the IC50 values calculated in this way into Ki values took place by using “calibration inhibitors”. The “calibration inhibitors” were also measured in each analysis. […]

Sequence of PARP II (Q9UGN5 whole entry): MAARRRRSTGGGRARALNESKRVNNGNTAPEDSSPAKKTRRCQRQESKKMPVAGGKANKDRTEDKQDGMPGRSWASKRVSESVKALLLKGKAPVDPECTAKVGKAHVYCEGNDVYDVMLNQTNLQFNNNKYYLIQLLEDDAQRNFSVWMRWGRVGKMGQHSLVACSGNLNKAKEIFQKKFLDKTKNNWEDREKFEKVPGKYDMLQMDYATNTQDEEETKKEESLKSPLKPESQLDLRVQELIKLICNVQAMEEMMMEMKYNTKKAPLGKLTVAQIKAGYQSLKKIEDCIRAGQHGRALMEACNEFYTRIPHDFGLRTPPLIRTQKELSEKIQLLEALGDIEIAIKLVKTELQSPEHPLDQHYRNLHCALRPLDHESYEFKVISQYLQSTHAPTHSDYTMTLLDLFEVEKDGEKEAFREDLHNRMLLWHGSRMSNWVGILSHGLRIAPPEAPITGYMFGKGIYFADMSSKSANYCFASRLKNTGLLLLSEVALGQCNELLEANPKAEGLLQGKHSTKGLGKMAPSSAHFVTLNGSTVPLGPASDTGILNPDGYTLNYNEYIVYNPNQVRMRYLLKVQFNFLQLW

| Structure (SMILES) | ranking as PARP inhibitor [4] | other results |
| --- | --- | --- |
| NC(=O)c1cccc2nc(-c3ccccc3)[nH]c12 [NU 1070, 2-phenylbenzimidazole-4-carboxamide] |  | Ki values for PARP compared with PARP II (selectivity) [1]: same order of magnitude |
| NC(=O)c1cccc2[nH]c(-c3ccncc3)nc12 [Example 1, 2-Pyridin-4-ylbenzimidazole-4-carboxamide] |  | solubility in water [2]: > 0.5% |
| NC(=O)c1cccc(N)c1 [3-aminobenzamide] |  | effect in a model of circulatory failure [3]: protective effects |
| CC(C)(C)N1CCN(c2ccc(-c3nc4cccc(C(N)=O)c4[nH]3)cn2)CC1 [Example 36, 2-(2-(4-tert-Butylpiperazin-1-yl)pyridin-5-yl)benzimidazole-4-carboxamide] | best PARP inhibitors |  |
| CCCN1CCN(c2ccc(-c3nc4cccc(C(N)=O)c4[nH]3)cn2)CC1 [Example 16, 2-(6-(4-Propylpiperazin-1-yl)pyridin-3-yl)benzimidazole-4-carboxamide] | best PARP inhibitors |  |
| CCN(CC)CCN(C)c1cc(-c2nc3c(C(N)=O)cccc3[nH]2)ccn1.CCN(CC)CCN(C)c1cc(-c2nc3c(C(N)=O)cccc3[nH]2)ccn1.O=C(O)/C=C/C(=O)O [Example 25, 2-(2-((2-(N,N-Diethylamino)eth-1-yl)methylamino)pyridin-4-yl)benzimidazole-4-carboxamide×½ Fumaric Acid] | best PARP inhibitors |  |
| CCCCN1CCN(c2ccc(-c3nc4cccc(C(N)=O)c4[nH]3)cn2)CC1.Cl [Example 37, 2-(2-(4-n-Butylpiperazin-1-yl)pyridin-5-yl)benzimidazole-4-carboxamide×HCl] | best PARP inhibitors |  |
| CCN(CC)CCN(C)c1ccc(-c2nc3c(C(N)=O)cccc3[nH]2)cn1.Cl.Cl [Example 15, 2-(6-((2-(N,N-Diethylamino)eth-1-yl)methylamino)pyridin-3-yl)benzimidazole-4-carboxamide×2 HCl] | best PARP inhibitors |  |
| COc1ccc(-c2nc3cccc(C(N)=O)c3[nH]2)cc1 [NU 1076, reference compound] |  | solubility in water [2]: < 0.01% |
